The subject of experiment [1] is Acinetobacter baumannii LSI-2957. The following applies: previously published data for 27 and ciprofloxacin; cited from earlier work.
Experiment [2] deals with Enterococcus faecium DRL-4193. The following applies: vancomycin-susceptible strain; previously published data for 27 and ciprofloxacin; cited from earlier work.
In experiment [3] the test system is Klebsiella pneumoniae LSI-2999. The following applies: previously published data for 27 and ciprofloxacin; cited from earlier work.
In experiment [4] the test system is Streptococcus pneumoniae LSI-4246. The following applies: penicillin-resistant strain; previously published data for 27 and ciprofloxacin; cited from earlier work.
Experiment [5] deals with Streptococcus pyogenes LSI-1235. The conditions noted are these: previously published data for 27 and ciprofloxacin; cited from earlier work.
The test system of experiment [6] is Pseudomonas aeruginosa LSI-2946. The conditions noted are these: previously published data for 27 and ciprofloxacin; cited from earlier work.
Experiment [7] concerns Escherichia coli ATCC 25922. The following applies: previously published data for 27 and ciprofloxacin; cited from earlier work.
Experiment [8] relates to Enterococcus faecalis ATCC 29212. The conditions noted are these: previously published data for 27 and ciprofloxacin; cited from earlier work.
In a further experiment the target is S. aureus DNA gyrase (Staphylococcus aureus, UniProt P20831). The experiment can be described thus: Inhibition of DNA gyrase, biochemical assay (Inspiralis).
For experiment [9], the system named is S. aureus strain isolated from a cystic fibrosis patient. The experiment can be described thus: MIC, CLSI broth microdilution, CF isolate. The following applies: Staphylococcus aureus, read-out: MIC CF isolate. The class given is cell-based. (In general: In broth dilution the organism is exposed to a series of concentrations in liquid medium.)
The target of the next experiment is TopoIV from S. aureus (Staphylococcus aureus, UniProt P0C1U9). The experiment is described as follows: biochemical. The class given is biochemical.
A further experiment has as its system USA300 isolate of MRSA. The experiment is described as follows: MIC, CLSI broth microdilution, USA300 MRSA. The following applies: Staphylococcus aureus, read-out: MIC USA300. The experiment is classed as cell-based.
Another experiment relates to S. aureus ATCC 29213. The experiment can be described thus: MIC, CLSI broth microdilution, S. aureus ATCC 29213. The experiment is classed as cell-based. The conditions noted are these: Staphylococcus aureus.
Setting [10] is: CLSI broth microdilution, ciprofloxacin-resistant MRSA.
Setting [11] is: ATCC29213, CLSI broth microdilution, triplicate, read-out: MIC ATCC 29213.

pIC50: −log10 of the molar value. In brackets after ≈: the same amount, converted by molar mass. Like-named read-outs stand apart in the source and are kept apart here.

S. aureus DNA gyrase, sequence (P0A0K8 whole entry): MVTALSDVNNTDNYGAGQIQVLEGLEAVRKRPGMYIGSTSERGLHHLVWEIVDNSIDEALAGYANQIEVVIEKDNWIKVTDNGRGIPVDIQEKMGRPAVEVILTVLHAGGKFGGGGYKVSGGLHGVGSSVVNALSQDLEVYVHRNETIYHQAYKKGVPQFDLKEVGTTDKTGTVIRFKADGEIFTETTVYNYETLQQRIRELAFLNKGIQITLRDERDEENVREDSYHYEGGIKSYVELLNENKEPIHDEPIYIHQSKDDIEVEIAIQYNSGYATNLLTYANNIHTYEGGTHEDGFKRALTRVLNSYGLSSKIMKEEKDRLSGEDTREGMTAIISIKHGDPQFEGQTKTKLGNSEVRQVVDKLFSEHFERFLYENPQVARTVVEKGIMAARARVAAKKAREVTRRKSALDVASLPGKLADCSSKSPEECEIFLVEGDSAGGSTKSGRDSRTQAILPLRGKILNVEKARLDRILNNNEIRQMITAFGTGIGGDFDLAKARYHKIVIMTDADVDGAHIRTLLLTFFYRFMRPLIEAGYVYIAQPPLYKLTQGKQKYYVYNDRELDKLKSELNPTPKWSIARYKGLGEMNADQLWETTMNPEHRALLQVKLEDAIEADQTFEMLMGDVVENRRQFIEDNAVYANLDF
S. aureus DNA gyrase, sequence (P20831 whole entry): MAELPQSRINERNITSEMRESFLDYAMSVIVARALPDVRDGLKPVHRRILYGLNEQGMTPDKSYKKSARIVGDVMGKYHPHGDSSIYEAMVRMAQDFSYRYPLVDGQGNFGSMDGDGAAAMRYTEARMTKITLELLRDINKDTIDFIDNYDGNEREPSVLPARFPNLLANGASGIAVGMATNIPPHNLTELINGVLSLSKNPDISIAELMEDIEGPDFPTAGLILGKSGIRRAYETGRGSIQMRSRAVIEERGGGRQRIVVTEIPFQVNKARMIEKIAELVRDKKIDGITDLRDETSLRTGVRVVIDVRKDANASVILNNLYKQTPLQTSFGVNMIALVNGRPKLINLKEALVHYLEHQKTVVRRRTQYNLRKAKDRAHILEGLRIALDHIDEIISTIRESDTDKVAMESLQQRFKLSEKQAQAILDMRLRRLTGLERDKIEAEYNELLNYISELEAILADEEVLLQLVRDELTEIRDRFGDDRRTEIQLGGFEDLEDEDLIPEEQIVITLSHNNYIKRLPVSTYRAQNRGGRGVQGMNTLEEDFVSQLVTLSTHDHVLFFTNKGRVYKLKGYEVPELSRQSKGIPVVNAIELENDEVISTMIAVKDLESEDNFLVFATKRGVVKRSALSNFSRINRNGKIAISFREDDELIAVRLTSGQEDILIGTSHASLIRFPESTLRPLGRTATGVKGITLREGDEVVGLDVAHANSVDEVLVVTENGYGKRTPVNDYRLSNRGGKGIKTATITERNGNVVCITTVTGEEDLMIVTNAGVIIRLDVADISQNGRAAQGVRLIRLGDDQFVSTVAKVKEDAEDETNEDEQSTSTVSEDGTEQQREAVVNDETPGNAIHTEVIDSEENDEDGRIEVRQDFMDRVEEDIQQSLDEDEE
TopoIV from S. aureus, sequence (P0C1S7 whole entry): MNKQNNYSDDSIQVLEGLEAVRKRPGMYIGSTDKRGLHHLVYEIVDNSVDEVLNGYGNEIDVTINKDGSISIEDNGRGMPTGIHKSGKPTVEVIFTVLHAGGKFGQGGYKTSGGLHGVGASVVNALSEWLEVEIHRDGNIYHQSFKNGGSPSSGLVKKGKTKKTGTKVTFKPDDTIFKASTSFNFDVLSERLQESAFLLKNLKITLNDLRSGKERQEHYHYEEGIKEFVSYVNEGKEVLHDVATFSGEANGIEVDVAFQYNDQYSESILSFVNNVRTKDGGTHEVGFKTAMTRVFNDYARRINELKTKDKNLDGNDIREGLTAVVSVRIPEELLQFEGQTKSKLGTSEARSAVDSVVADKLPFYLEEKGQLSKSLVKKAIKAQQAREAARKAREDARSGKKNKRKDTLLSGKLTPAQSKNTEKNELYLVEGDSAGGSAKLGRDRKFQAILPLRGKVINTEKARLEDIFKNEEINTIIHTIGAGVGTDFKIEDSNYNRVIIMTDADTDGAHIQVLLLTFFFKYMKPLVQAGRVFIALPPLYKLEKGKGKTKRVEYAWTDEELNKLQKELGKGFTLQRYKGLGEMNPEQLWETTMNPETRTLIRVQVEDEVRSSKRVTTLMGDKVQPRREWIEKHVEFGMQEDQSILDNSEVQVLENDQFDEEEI
TopoIV from S. aureus, sequence (P0C1U9 whole entry): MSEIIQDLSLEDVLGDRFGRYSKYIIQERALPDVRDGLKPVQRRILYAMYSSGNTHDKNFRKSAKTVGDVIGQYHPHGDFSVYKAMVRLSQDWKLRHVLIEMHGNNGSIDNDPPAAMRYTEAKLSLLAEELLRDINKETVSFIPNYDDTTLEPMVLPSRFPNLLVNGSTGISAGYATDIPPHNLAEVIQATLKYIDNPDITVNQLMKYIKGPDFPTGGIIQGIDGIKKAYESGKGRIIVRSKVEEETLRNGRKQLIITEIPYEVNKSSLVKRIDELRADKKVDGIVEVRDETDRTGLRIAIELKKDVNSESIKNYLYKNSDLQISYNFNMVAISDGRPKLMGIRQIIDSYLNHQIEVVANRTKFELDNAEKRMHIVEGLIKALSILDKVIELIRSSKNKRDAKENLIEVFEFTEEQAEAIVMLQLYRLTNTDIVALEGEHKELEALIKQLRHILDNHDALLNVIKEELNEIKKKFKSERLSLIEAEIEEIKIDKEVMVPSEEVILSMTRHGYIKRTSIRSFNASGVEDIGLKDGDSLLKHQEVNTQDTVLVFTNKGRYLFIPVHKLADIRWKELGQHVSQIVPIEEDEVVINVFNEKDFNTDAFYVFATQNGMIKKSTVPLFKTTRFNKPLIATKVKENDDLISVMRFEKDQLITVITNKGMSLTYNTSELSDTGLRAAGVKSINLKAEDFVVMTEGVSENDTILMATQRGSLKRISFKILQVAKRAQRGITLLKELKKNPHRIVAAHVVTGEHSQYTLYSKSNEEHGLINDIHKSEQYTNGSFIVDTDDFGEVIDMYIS

In the case of `O=C(O)c1cn(C2CC2)c2cc(N3CCNCC3)c(F)cc2c1=O` [ciprofloxacin], in experiment [1], the “MIC Acinetobacter baumannii LSI-2957” value was 0.25 µg/mL (≈ 0.754 µM). Moreover, in experiment [2], the “MIC Enterococcus faecium DRL-4193” value was 0.25 µg/mL (≈ 0.754 µM). Moreover, the “MIC Klebsiella pneumoniae LSI-2999” value in experiment [3] was 0.25 µg/mL (≈ 0.754 µM). Besides, in experiment [4], the “MIC Streptococcus pneumoniae LSI-4246” value was 0.5 µg/mL (≈ 1.51 µM). In addition, the “MIC Streptococcus pyogenes LSI-1235” value in [5] was 0.25 µg/mL (≈ 0.754 µM). Also, in experiment [6], the “MIC Pseudomonas aeruginosa LSI-2946” value is 0.5 µg/mL (≈ 1.51 µM). Besides, in experiment [7], the “MIC Escherichia coli ATCC 25922 (n = 2)” value is no more than 0.06 µg/mL. In addition, the “MIC Enterococcus faecalis ATCC 29212” value in experiment [8] is 0.5 µg/mL (≈ 1.51 µM).
`COc1ccc2ncc(F)c(CC[C@@]3(O)CO[C@@H]4[C@@H](NCc5ccc6c(n5)NC(=O)CO6)CO[C@@H]43)c2n1` [Compound 7, 6-((((3S,3aR,6R,6aS)-6-(2-(3-fluoro-6-methoxy-1,5-tnaphthyriditn-4-yl)ethyl)-6-hydroxyhexahydrofuro[3,2-b]furan-3-yl)amino)methyl)-2H-pyrido[3,2-b][1,4]oxazin-3(4H)-one] gave a negative logarithm of the IC50 (pIC50) against S. aureus DNA gyrase of 6.27. The MIC is 2 µg/mL (≈ 3.91 µM) in experiment [9]; 1 to 2 µg/mL (≈ 1.95 to 3.91 µM) in the experiment with USA300 isolate of MRSA; 2 µg/mL (≈ 3.91 µM) in the experiment on S. aureus ATCC 29213 (ATCC29213, read-out: MIC ATCC 29213). The “TopoIV IC50” value on TopoIV from S. aureus was “No activity”.
For `COc1ccc2nccc(CC[C@@]3(O)CO[C@@H]4[C@@H](NCc5ccc6c(c5)OCCO6)CO[C@@H]43)c2c1` [Compound 21, (3R,3aS,6S, 6aR)-6-(((2,3-dihydrobenzo[b][1,4]dioxin-6-yl)methyl)amino)-3-(2-(6-methoxyquinalin-4-yl)ethyl)hexahydrofuro[3,2-b]furan-3-ol], the MIC in [9] (CLSI broth microdilution) was 16 µg/mL (≈ 33.4 µM); in the experiment on USA300 isolate of MRSA (setting [10]), 16 µg/mL (≈ 33.4 µM); in the experiment with S. aureus ATCC 29213 (setting [11]) it was 16 to 32 µg/mL (≈ 33.4 to 66.9 µM).
Consider `COc1ccc2nccc(CC[C@@]3(O)CO[C@@H]4[C@@H](NCc5ccc(C)cc5)CO[C@@H]43)c2c1` [Compound 23, (3R,3aS,6S,6aR)-3-(2-(6-methoxyquinolin-4-yl)ethyl)-6-((4-methylbenzyl)amino)hexahydrofuro[3,2-h]furan-3-ol], for which the MIC (in experiment [9] (CLSI broth microdilution); with USA300 isolate of MRSA (setting [10]); with S. aureus ATCC 29213 (setting [11])) was greater than 8 µg/mL in each case.
In the case of `CN[C@H](CC(C)C)C(=O)N[C@H]1C(=O)N[C@@H](CC(N)=O)C(=O)N[C@H]2C(=O)N[C@H]3C(=O)N[C@H](C(=O)N[C@H](C(=O)O)c4cc(O)cc(O)c4-c4cc3ccc4O)[C@H](O)c3ccc(c(Cl)c3)Oc3cc2cc(c3O[C@@H]2O[C@H](CO)[C@@H](O)[C@H](O)[C@H]2O[C@H]2C[C@](C)(N)[C@H](O)[C@H](C)O2)Oc2ccc(cc2Cl)[C@H]1O` [vancomycin, reference compound], the MIC (in experiment [9]; in the experiment with USA300 isolate of MRSA) was 1 to 2 µg/mL (≈ 0.69 to 1.38 µM) throughout.
As to `COc1ccc2nccc(CC[C@@]3(O)CO[C@@H]4[C@@H](NCc5ccccc5)CO[C@@H]43)c2c1` [Compound 22, (3R,3aS,6S,6aR)-6-(benzylamino)-3-(2-(6-methoxyquinolin-4-yl)ethyl)hexahydrofuro[3,2-b]furan-3-ol], the MIC (in [9] (CLSI broth microdilution); with USA300 isolate of MRSA (setting [10]); in the experiment on S. aureus ATCC 29213 (setting [11])) was greater than 8 µg/mL in each case.

In general, pIC50 refers to the IC50 on a negative log10 scale, so that one unit is a factor of ten. As a reminder, the MIC is the least concentration at which growth counts as inhibited.

The record behind these values is patent publication US20230097866A1, “BACTERIAL TOPOISOMERASE INHIBITORS DERIVED FROM ISOMANNIDE” (Ohio State Innovation Foundation, priority 2020, published 2023).
